Test systems include SF-295; NCI-H23; COLO 205; OVCAR-5; UACC-62; MDA-MB-231; NCI/ADR-RES; MDA-MB-435; MCF7; SK-OV-3; HL-60; T47D; 786-0; HT-29; U-251; NCI-H460; A549; PC-3; SF-268; SK-MEL-2.
Assay in all cases: NCI anticancer screen, dose series, 48 h

This is an account of results in ChEMBL document CHEMBL1201862, “PubChem BioAssay data set” (2004).

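Assay format: 96-well plates, 48-hour exposure. GI50: concentration for 50% inhibition of growth.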 Activity calls are given as the source filed them. No stated cut-off is given here; in the data, active = GI50 up to about 1.1 µM and inactive = higher.

On to `CCNC1=C(NC(=O)c2ccccc2)C(=O)c2ccccc2C1=O`, for which the GI50 in the assay with SF-295 was 32.4 µM (inactive); in the assay with NCI-H23, 36.7 µM (inactive); in the assay with COLO 205, 16.6 µM (inactive); with OVCAR-5 it was > 100 µM (inactive); with UACC-62, 20 µM (inactive); with MDA-MB-231 it was 6.12 µM (inactive). Moreover, the GI50 with NCI/ADR-RES is 16.7 µM (inactive); with MDA-MB-435 it was 7.21 µM (inactive); in the assay with MCF7, 32.1 µM (inactive); with SK-OV-3 it was 24 µM (inactive); in the assay on HL-60, 36.3 µM (inactive); with T47D, 14.1 µM (inactive). In addition, the GI50 in the assay on 786-0 is > 100 µM (inactive); in the assay on HT-29, 36.6 µM (inactive); in the assay on U-251, 33 µM (inactive); with NCI-H460, 39.4 µM (inactive); with A549, 67.6 µM (inactive); in the assay with PC-3, 18.2 µM (inactive).

Regarding `CCCCCCCC/C=C/CCCCCCCC1CC(O)C(=O)O1` (stereo unspecified), the GI50 is 30.7 µM (inactive) in the assay with SF-295; 44.8 µM (inactive) with NCI-H23; 30.1 µM (inactive) in the assay with COLO 205; > 100 µM (inactive) in the assay with OVCAR-5; 46.2 µM (inactive) with SF-268; 63.2 µM (inactive) in the assay on UACC-62. For the same compound, the GI50 was > 100 µM (inactive) in the assay on MDA-MB-231; 54.1 µM (inactive) in the assay with NCI/ADR-RES; 38.9 µM (inactive) in the assay with MDA-MB-435; 32.4 µM (inactive) in the assay on MCF7; 79.8 µM (inactive) with SK-OV-3; 35.3 µM (inactive) in the assay on HL-60. For the same compound, the GI50 in the assay with T47D was 39.5 µM (inactive); with 786-0, 42.4 µM (inactive); in the assay with HT-29, 33.4 µM (inactive); in the assay with U-251 it was 62.7 µM (inactive); in the assay on NCI-H460, 25.1 µM (inactive); in the assay on A549, 51.6 µM (inactive). Further, the GI50 in the assay on PC-3 was 46.3 µM (inactive).

`Cc1cccc(Br)[n+]1[O-]`: the GI50 in the assay with SK-MEL-2, with SF-295, with NCI-H23, in the assay with COLO 205, with OVCAR-5 and in the assay on SF-268 was > 100 µM (inactive) throughout. Moreover, the GI50 was > 100 µM (inactive) with UACC-62; 91.6 µM (inactive) in the assay on MDA-MB-231; > 100 µM (inactive) in the assay with NCI/ADR-RES; > 100 µM (inactive) in the assay with MDA-MB-435; > 100 µM (inactive) in the assay with MCF7; > 100 µM (inactive) in the assay on SK-OV-3. In addition, the GI50 with T47D, in the assay on 786-0, in the assay with HT-29, in the assay on U-251, with NCI-H460 and with A549 was > 100 µM (inactive) in each case. Also, in the assay with PC-3, the GI50 was > 100 µM (inactive).

For the compound `COC(=O)c1ccccc1C1CN=NC12Cc1ccc3ccccc3c1C2=O` (stereo unspecified), the GI50 in the assay on SK-MEL-2 is > 100 µM (inactive); in the assay on SF-295, 38.5 µM (inactive); in the assay on COLO 205, > 100 µM (inactive); in the assay on OVCAR-5, > 100 µM (inactive); in the assay with SF-268, > 100 µM (inactive); with UACC-62, > 100 µM (inactive). In addition, the GI50 with MDA-MB-231 was > 100 µM (inactive); in the assay with NCI/ADR-RES, > 100 µM (inactive); in the assay with MDA-MB-435, 30.7 µM (inactive); in the assay on MCF7, > 100 µM (inactive); in the assay on HL-60, 8.43 µM (inactive); with T47D, 21.1 µM (inactive). In addition, the GI50 with 786-0 is > 100 µM (inactive); in the assay on U-251 it was > 100 µM (inactive); with NCI-H460, 80 µM (inactive); in the assay on A549 it was 85.3 µM (inactive); with PC-3, > 100 µM (inactive).

In the case of `O=C(NCCCCNCCCNC(=O)c1cc(-c2ccccc2)nc2ccccc12)c1cc(-c2ccccc2)nc2ccccc12`, the GI50 was 1.91 µM (inactive) with SK-MEL-2; 1.77 µM (inactive) with SF-295; 1.98 µM (inactive) with NCI-H23; 1.49 µM (inactive) in the assay on COLO 205; 2.03 µM (inactive) with SF-268; 2.12 µM (inactive) with UACC-62. Also, the GI50 in the assay with MDA-MB-231 is 1.85 µM (inactive); with NCI/ADR-RES, 2.26 µM (inactive); with MDA-MB-435 it was 1.79 µM (inactive); in the assay on MCF7, 1.64 µM (inactive); with HL-60, 1.71 µM (inactive); in the assay with T47D, 1.87 µM (inactive). Moreover, the GI50 was 1.67 µM (inactive) in the assay on 786-0; 1.6 µM (inactive) in the assay on HT-29; 1.91 µM (inactive) with U-251; 1.91 µM (inactive) with NCI-H460; 1.65 µM (inactive) in the assay with A549; 1.63 µM (inactive) in the assay with PC-3.

Consider `O=C1CC2(CCNCC2)C(=O)N1N1CCCC1`, for which the GI50 with SF-295, in the assay on NCI-H23, in the assay on COLO 205, in the assay with OVCAR-5, in the assay on UACC-62 and with MDA-MB-231 was > 100 µM (inactive) in each case. Also, the GI50 in the assay with NCI/ADR-RES, in the assay with MDA-MB-435, with MCF7, with SK-OV-3, in the assay with HL-60 and in the assay with T47D was > 100 µM (inactive) throughout. The GI50 in the assay on 786-0, in the assay on HT-29, in the assay with U-251, in the assay with A549 and in the assay with PC-3 was > 100 µM (inactive) each time.

As to `CN(C)CCCNc1ccc2nnn3c4ccc(OC(=O)c5ccccc5)cc4c(=O)c1c23`, the GI50 was 15.9 µM (inactive) in the assay on SK-MEL-2; 10.9 µM (inactive) with SF-295; 13.4 µM (inactive) with NCI-H23; 14 µM (inactive) in the assay on COLO 205; 14.4 µM (inactive) with OVCAR-5; 10.5 µM (inactive) in the assay on SF-268. In addition, the GI50 was 14.5 µM (inactive) in the assay with UACC-62; 10.4 µM (inactive) in the assay with MDA-MB-231; 12.5 µM (inactive) in the assay on NCI/ADR-RES; 6.4 µM (inactive) in the assay with MDA-MB-435; 6.07 µM (inactive) in the assay on MCF7; 9.51 µM (inactive) in the assay with SK-OV-3. Also, the GI50 was 18.7 µM (inactive) with T47D; 3.08 µM (inactive) in the assay on 786-0; 3.71 µM (inactive) in the assay with HT-29; 11.5 µM (inactive) in the assay with U-251; 0.76 µM (active) with NCI-H460; 2.43 µM (inactive) in the assay on A549. Further, the GI50 in the assay on PC-3 was 8.34 µM (inactive).

As to `Cc1n[nH]c(=O)n1/N=C/c1ccco1`, the GI50 with SK-MEL-2, in the assay on SF-295, with NCI-H23, in the assay on COLO 205, in the assay with OVCAR-5 and in the assay with SF-268 was > 100 µM (inactive) in each case. Further, the GI50 with UACC-62, in the assay on MDA-MB-231, in the assay with NCI/ADR-RES, in the assay on MDA-MB-435, with MCF7 and with SK-OV-3 was > 100 µM (inactive) throughout. For the same compound, the GI50 in the assay on T47D, in the assay with 786-0, in the assay on HT-29, in the assay with U-251, in the assay on NCI-H460 and in the assay on A549 was > 100 µM (inactive) throughout. Moreover, the GI50 in the assay with PC-3 was > 100 µM (inactive).

As for `O=S1(=O)CCN(Cc2ccccn2)CC1`, the GI50 with SK-MEL-2, in the assay on SF-295, with NCI-H23, in the assay with COLO 205, in the assay with OVCAR-5 and in the assay on SF-268 was > 100 µM (inactive) throughout. The GI50 in the assay on UACC-62, in the assay with MDA-MB-231, with NCI/ADR-RES, with MDA-MB-435, in the assay with MCF7 and in the assay on SK-OV-3 was > 100 µM (inactive) each time. In addition, the GI50 in the assay with T47D, in the assay on 786-0, in the assay on HT-29, in the assay with U-251, in the assay with NCI-H460 and in the assay with A549 was > 100 µM (inactive) in each case. Also, the GI50 with PC-3 is > 100 µM (inactive).

Consider `CCOC(=O)C1CCC(=O)N1C(=O)c1cccc(Cl)c1` (stereo unspecified), for which the GI50 was > 100 µM (inactive) in the assay on SF-295; > 100 µM (inactive) with NCI-H23; > 100 µM (inactive) with OVCAR-5; > 100 µM (inactive) with SF-268; 14.8 µM (inactive) in the assay with UACC-62; > 100 µM (inactive) in the assay with MDA-MB-231. The GI50 with NCI/ADR-RES, in the assay with MDA-MB-435, in the assay with MCF7, with HL-60, in the assay with T47D and with 786-0 was > 100 µM (inactive) each time. Besides, the GI50 in the assay with HT-29, in the assay with U-251, with NCI-H460, in the assay with A549 and in the assay with PC-3 was > 100 µM (inactive) each time.

For the compound `Cc1ccc(/C=C2\CN(C)CC3C(c4ccc(C)cc4)=C(C#N)C(=O)NC23)cc1` (stereo unspecified), the GI50 in the assay on SK-MEL-2, in the assay with SF-295, in the assay with NCI-H23, with COLO 205, in the assay on OVCAR-5 and in the assay with SF-268 was > 50 µM (inactive) throughout. The GI50 is > 50 µM (inactive) in the assay with UACC-62; 48.2 µM (inactive) with MDA-MB-231; > 50 µM (inactive) in the assay with NCI/ADR-RES; > 50 µM (inactive) with MDA-MB-435; > 50 µM (inactive) in the assay with MCF7; > 50 µM (inactive) in the assay with SK-OV-3. Besides, the GI50 in the assay with T47D, in the assay on 786-0, with HT-29, with U-251, in the assay on NCI-H460 and in the assay on A549 was > 50 µM (inactive) throughout. Besides, in the assay with PC-3, the GI50 was > 50 µM (inactive).
